In PMC7253177, “Gain of channel function and modified gating properties in TRPM3 mutants causing intellectual disability and epilepsy” (eLife, 2020):

Target: T1, TRPM3 V990M mutant (Homo sapiens, UniProt Q9HCF6, V1015M)
T1 construct: expressed in transfected cells; host or cells: HEK293T
T1 sequence (Q9HCF6 1-1325 isoform Q9HCF6-10 V990M): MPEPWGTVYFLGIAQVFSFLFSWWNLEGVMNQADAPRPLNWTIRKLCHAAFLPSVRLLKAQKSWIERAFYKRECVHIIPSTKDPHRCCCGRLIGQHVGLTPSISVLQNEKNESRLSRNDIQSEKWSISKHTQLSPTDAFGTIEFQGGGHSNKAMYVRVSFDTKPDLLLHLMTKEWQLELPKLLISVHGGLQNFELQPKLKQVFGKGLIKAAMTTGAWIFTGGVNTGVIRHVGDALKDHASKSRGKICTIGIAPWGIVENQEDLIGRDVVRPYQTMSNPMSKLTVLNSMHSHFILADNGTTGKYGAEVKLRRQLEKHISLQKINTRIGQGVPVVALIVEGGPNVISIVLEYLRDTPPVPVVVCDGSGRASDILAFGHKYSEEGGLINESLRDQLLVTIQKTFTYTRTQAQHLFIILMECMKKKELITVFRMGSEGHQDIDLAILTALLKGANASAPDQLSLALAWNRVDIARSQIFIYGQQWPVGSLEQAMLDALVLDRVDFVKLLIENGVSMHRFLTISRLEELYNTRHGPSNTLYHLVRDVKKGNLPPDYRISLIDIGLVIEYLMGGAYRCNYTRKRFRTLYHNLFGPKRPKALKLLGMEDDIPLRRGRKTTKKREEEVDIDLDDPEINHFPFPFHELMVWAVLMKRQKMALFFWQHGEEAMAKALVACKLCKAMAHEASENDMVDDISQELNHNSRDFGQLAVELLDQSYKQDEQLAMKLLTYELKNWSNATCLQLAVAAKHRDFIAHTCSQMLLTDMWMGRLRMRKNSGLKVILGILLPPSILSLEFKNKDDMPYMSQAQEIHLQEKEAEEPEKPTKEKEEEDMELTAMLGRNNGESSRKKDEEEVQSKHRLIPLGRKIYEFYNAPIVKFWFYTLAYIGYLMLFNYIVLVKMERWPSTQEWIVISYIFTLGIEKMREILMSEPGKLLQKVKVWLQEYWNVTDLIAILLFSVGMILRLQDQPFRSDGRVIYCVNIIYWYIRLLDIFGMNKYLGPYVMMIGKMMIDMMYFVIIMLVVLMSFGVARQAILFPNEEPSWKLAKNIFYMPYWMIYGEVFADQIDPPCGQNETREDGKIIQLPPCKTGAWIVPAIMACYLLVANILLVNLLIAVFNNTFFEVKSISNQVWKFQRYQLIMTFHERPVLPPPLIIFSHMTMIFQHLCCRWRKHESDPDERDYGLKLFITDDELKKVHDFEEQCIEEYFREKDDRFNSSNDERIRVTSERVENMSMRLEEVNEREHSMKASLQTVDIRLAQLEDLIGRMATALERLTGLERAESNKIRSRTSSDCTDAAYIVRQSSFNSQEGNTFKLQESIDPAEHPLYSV
Experiment: Fura-2-based calcium imaging, HEK293T cells transfected with V990M hTRPM3
Type: cell-based
Method: HEK293T cells ([Graham et al., 1977]) were cultured as described previously ([Vriens et al., 2007]) and used up in passage number 14. HEK293T cells were tested for the lack of mycoplasma and transiently transfected with 2 µg of DNA using TransIT transfection reagent (Mirus) 36–48 hr before the measurements. In case of co-cultures a ratio of 1:1 between hTRPM3-YFP WT and mutants-YFP DNA was used.
All mutants were obtained by the standard PCR overlap extension method using hTRPM3 directly linked to YFP from pCAGGS/IRES-GFP vector ([Vriens et al., 2007]). Accuracy of all mutant sequences was verified by sequencing of the entire DNA constructs.
Changes in intracellular calcium concentration were monitored using ratiometric Fura-2-based fluorimetry. Cells were loaded with 2 µM Fura-2-acetoxymethyl ester (Alexis Biochemicals) for 30 min at 37°C. Fluorescence was measured during alternating illumination at 340 and 380 nm using Eclipse Ti (Nikon) fluorescence microscopy system, and absolute calcium concentration was calculated from the ratio of the fluorescence signals at these two wavelengths (R = F340/F380) as [Ca^2+]=Km × (R-Rmin)/(Rmax-R), where Km, Rmin and Rmax were estimated from in vitro calibration experiments with known calcium concentrations. The bath solution contained (in mM) 138 NaCl, 5.4 KCl, 2 CaCl2, 2 MgCl2, 10 glucose, and 10 HEPES, pH 7.4. […]

CCC1(c2ccccc2)C(=O)NCNC1=O [primidone]
Effect on basal [Ca2+]i (primidone 100 µM, isosakuranetin 50 µM, did not fully return to WT level): reduced [Ca^2+]i

pregnenolone sulfate [PS]
PS concentration giving robust calcium responses (as low as): 100 nM
